Source: patent publication US4988697A, “Fungicidal compositions and method” (Merck & Co., Inc., priority 1989, dated 1991)
Converted amounts (≈) assume the structure as drawn.

Columns and labels:
Type in all cases: cell-based
A. niger = test: MIC against fungal panel, A. niger
Protocol: (§1) First the MIC for the β-lactone compound and the MIC for the ketoconazole were determined against an array of organisms. Thereafter, the effects on the MIC of adding 0.031, 0.125, 0.5 and 2 μg/ml of ketoconazole were determined.

Candida albicans MY 1055 [1] = test: Minimum Fungicidal Concentration, plating of MIC tubes; settings: MY1055, ≥95% reduction of viable cells, 37° C., 17 hours
Protocol: In the manner above described for the determination of minimum inhibitory concentration, broth dilution assay tubes were prepared ranging from 0.625 to 100 μg/ml and 1 milliliter of YNB/G inoculated with Candida albicans MY 1055 sterile test tubes. The tubes were incubated at 250 rpm at 37° C. for 17 hours. The minimum fungicidal concentration (MFC) was determined by serially diluting samples of MIC tubes in 0.9% saline. Aliquots were plated on Sabouraud dextrose agar. The plates were incubated at 37° for 48 hr. and the colonies counted. From the counts obtained, the number of cfu/ml in the undiluted drug-culture tube was calculated. The MFC is defined as the minimum amount of drug required to reduce the number of viable cells initially present in the drug-culture tubes greater than or equal to 95%. The MFC was 10 μg/ml.

Candida albicans MY 1055 [2] = test: Effect of Azole Antifungals on the MIC'S of the β-Lactone Compound
Description: The β-lactone compound and the following conazole compounds: cis-1-acetyl-4-[4-[[2-(2,4-dichlorophenyl)-2-1H-imidazole-1-ylmethyl)-1,3- dioxolan-4-yl]-methoxyl]phenyl]piperazine (ketoconazole), α-(2,4-difluorophenyl)-α-(1H-1,4-triazol-1-ylmethyl)1H-1,2-4-triazole-1-ethanol (fluconazole and cis-4-[4-[4-[4-[[2-(2,4-dichlorophenyl)-2-(1H-1,2,4-triazole-1-ylmethyl)-1,3-dioxolan-4-yl]-methoxy] phenyl]-1-piperazinyl]phenyl-2,4-dihydro-2-(1-methylpropyl)-3H-1,2,4-triazol-3-one (itraconazole), were dissolved in DMSO and serially diluted in the manner previously described.
Assay tubes were prepared in a manner similar to that previously described and in operations carried out in a manner similar to that previously described, the effect of various conazole compounds on the MIC of the β-lactone compound were determined.

U. zeae = test: MIC against fungal panel, U. zeae
Protocol: as §1

C. neoformans = test: MIC against fungal panel, C. neoformans
Protocol: as §1

C. albicans (Y1055) = test: MIC against fungal panel, C. albicans (Y1055)
Protocol: as §1

F. oxysporium = test: MIC against fungal panel, F. oxysporium
Protocol: as §1

Candida albicans = test: Synergistic and fungicidal effect on exponential phase cultures (CFU/ml over time); settings: ketoconazole 1 μg/ml, alone or combined
Protocol: Synergistic and fungicidal effects were determined by treating exponential phase Candida albicans cultures with β-Lactone at MIC and MFC levels and ketoconazole at 0.1 μg/ml or a 1 μg/ml alone or in combination. Exponential phase cultures were prepared by diluting an overnight culture 1:50 or 1:1000 in YNB/G. After incubating the diluted cells 7 or 17 hrs. at 37° C., the exponential phase cells were diluted in YNB/G to A600 =0.0004 u/ml to obtain 3000 cfu/ml.
10 microliters (μl) of β-lactone compound or ketoconazole prepared in DMSO was added to 1 ml of diluted exponential phase cells. The tubes were incubated at 37° C. at 250 rpm for 27 hours. Periodically, aliquots were diluted in 0.9% saline and plated on Sabouraud dextrose agar plates to determine the number of cfu/ml.

Candida albicans MY 1055 [3] = test: Minimum Inhibitory Concentration, broth dilution; settings: MY1055, YNB/G, 37° C., 17 hr
Protocol: 11-(3-hydroxymethyl-4-oxo-2-oxetanyl)-7-methyl-2,4-undecadienoic acid (β-lactone compound), was solubilized in 100 percent dimethylsulfoxide (DMSO). Twofold dilutions were made with DMSO to obtain final drug concentrations in the broth dilution assay tubes ranging from 0.625 to 100 μg/ml.
The Candida albicans, MY 1055, yeast culture maintained in yeast nitrogen base/glucose (1/2 percent), YNB/G, was transferred to fresh medium and incubated 7 hours at 37° with shaking at 250 rpm. After incubation, each culture was diluted to A600 =0.0004 U/ml which was previously determined to be equal to 3000 cfu/ml (colony forming units per milliliter).
1 milliliter of YNB/G inoculated with yeast culture was added to sterile test tubes. The tubes were incubated at 250 rpm, 37° C. for 17 hr. The minimum inhibitory concentrations (MIC) was recorded as the lowest concentration of drug […].

C. albicans (Y1750) = test: MIC against fungal panel, C. albicans (Y1750)
Protocol: as §1

C. miyabeamis = test: MIC against fungal panel, C. miyabeamis
Protocol: In a manner similar to that above described for effect against Candida albicans the synergistic effect of the combination of the β-lactone compound and ketoconazole against a fungal panel was determined by plating on potato dextrose agar.
as §1

## CC(=CC(=O)O)C=C(C)CC(C)CCCCC1OC(=O)C1CO (stereo not drawn) [β-Lactone Compound]
A. niger; ketoconazole 0 μg/ml
  MIC, β-Lactone Compound in Presence of Ketoconazole: > 50 µg/mL
A. niger; ketoconazole 0.031 μg/ml
  MIC, β-Lactone Compound in Presence of Ketoconazole: > 50 µg/mL
A. niger; ketoconazole 0.123 μg/ml
  MIC, β-Lactone Compound in Presence of Ketoconazole: > 50 µg/mL
A. niger; ketoconazole 0.5 μg/ml
  MIC, β-Lactone Compound in Presence of Ketoconazole: > 50 µg/mL
A. niger; ketoconazole 2 μg/ml
  MIC, β-Lactone Compound in Presence of Ketoconazole: > 50 µg/mL
Candida albicans MY 1055 [1]
  MFC: 10 µg/mL (≈ 30.8 µM)
Candida albicans MY 1055 [2]; fluconazole 0 μg/ml
  MIC of β-lactone compound: 2.5 µg/mL
Candida albicans MY 1055 [2]; itraconazole 0 μg/ml
  MIC of β-lactone compound: 2.5 µg/mL
Candida albicans MY 1055 [2]; ketoconazole 0 μg/ml
  MIC of β-lactone compound: 2.5 µg/mL
Candida albicans MY 1055 [2]; with fluconazole 0.3125 μg/ml
  MIC of β-lactone compound: 1.25 µg/mL
Candida albicans MY 1055 [2]; with fluconazole 1.25 μg/ml
  MIC of β-lactone compound: 0.625 µg/mL
Candida albicans MY 1055 [2]; with fluconazole 5.0 μg/ml
  MIC of β-lactone compound: 0.625 µg/mL
Candida albicans MY 1055 [2]; with itraconazole 0.3125 μg/ml
  MIC of β-lactone compound: 2.5 µg/mL
Candida albicans MY 1055 [2]; with itraconazole 1.25 μg/ml
  MIC of β-lactone compound: 1.25 µg/mL
Candida albicans MY 1055 [2]; with itraconazole 5.0 μg/ml
  MIC of β-lactone compound: 1.25 µg/mL
Candida albicans MY 1055 [2]; with ketoconazole 0.3125 μg/ml
  MIC of β-lactone compound: 0.625 µg/mL
Candida albicans MY 1055 [2]; with ketoconazole 1.25 μg/ml
  MIC of β-lactone compound: 0.625 µg/mL
Candida albicans MY 1055 [2]; with ketoconazole 5.0 μg/ml
  MIC of β-lactone compound: 0.625 µg/mL
U. zeae; ketoconazole 0 μg/ml
  MIC, β-Lactone Compound in Presence of Ketoconazole: 3.125 µg/mL
U. zeae; ketoconazole 0.031 μg/ml
  MIC, β-Lactone Compound in Presence of Ketoconazole: 3.125 µg/mL
U. zeae; ketoconazole 0.123 μg/ml
  MIC, β-Lactone Compound in Presence of Ketoconazole: 0.78 µg/mL
U. zeae; ketoconazole 0.5 μg/ml
  MIC, β-Lactone Compound in Presence of Ketoconazole: 0.19 µg/mL
U. zeae; ketoconazole 2 μg/ml
  MIC, β-Lactone Compound in Presence of Ketoconazole: 0.19 µg/mL
C. neoformans; ketoconazole 0 μg/ml
  MIC, β-Lactone Compound in Presence of Ketoconazole: 12.5 µg/mL
C. neoformans; ketoconazole 0.031 μg/ml
  MIC, β-Lactone Compound in Presence of Ketoconazole: 12.5 µg/mL
C. neoformans; ketoconazole 0.123 μg/ml
  MIC, β-Lactone Compound in Presence of Ketoconazole: 3.125 µg/mL
C. neoformans; ketoconazole 0.5 μg/ml
  MIC, β-Lactone Compound in Presence of Ketoconazole: 0.19 µg/mL
C. neoformans; ketoconazole 2 μg/ml
  MIC, β-Lactone Compound in Presence of Ketoconazole: 0.19 µg/mL
C. albicans (Y1055); ketoconazole 0 μg/ml
  MIC, β-Lactone Compound in Presence of Ketoconazole: 3.125 µg/mL
C. albicans (Y1055); ketoconazole 0.031 μg/ml
  MIC, β-Lactone Compound in Presence of Ketoconazole: 0.78 µg/mL
C. albicans (Y1055); ketoconazole 0.123 μg/ml
  MIC, β-Lactone Compound in Presence of Ketoconazole: 0.78 µg/mL
C. albicans (Y1055); ketoconazole 0.5 μg/ml
  MIC, β-Lactone Compound in Presence of Ketoconazole: 0.19 µg/mL
C. albicans (Y1055); ketoconazole 2 μg/ml
  MIC, β-Lactone Compound in Presence of Ketoconazole: 0.19 µg/mL
F. oxysporium; ketoconazole 0 μg/ml
  MIC, β-Lactone Compound in Presence of Ketoconazole: > 50 µg/mL
F. oxysporium; ketoconazole 0.031 μg/ml
  MIC, β-Lactone Compound in Presence of Ketoconazole: > 50 µg/mL
F. oxysporium; ketoconazole 0.123 μg/ml
  MIC, β-Lactone Compound in Presence of Ketoconazole: > 50 µg/mL
F. oxysporium; ketoconazole 0.5 μg/ml
  MIC, β-Lactone Compound in Presence of Ketoconazole: > 50 µg/mL
F. oxysporium; ketoconazole 2 μg/ml
  MIC, β-Lactone Compound in Presence of Ketoconazole: > 50 µg/mL
Candida albicans; Table 1, 2 hours, β-lactone 2.5 μg/ml
  Fungal Growth: 3.85 × 10^3 CFU/ML
Candida albicans; Table 1, 4.5 hours, β-lactone 2.5 μg/ml
  Fungal Growth: 8.80 × 10^3 CFU/ML
Candida albicans; Table 1, 7 hours, β-lactone 2.5 μg/ml
  Fungal Growth: 1.12 × 10^4 CFU/ML
Candida albicans; Table 1, 11 hours, β-lactone 2.5 μg/ml
  Fungal Growth: 1.28 × 10^4 CFU/ML
Candida albicans; Table 1, 17 hours, β-lactone 2.5 μg/ml
  Fungal Growth: 9.35 × 10^3 CFU/ML
Candida albicans; Table 1, 22 hours, β-lactone 2.5 μg/ml
  Fungal Growth: 1.23 × 10^4 CFU/ML
Candida albicans; Table 1, 27 hours, β-lactone 2.5 μg/ml
  Fungal Growth: 1.80 × 10^4 CFU/ML
Candida albicans; Table 2, 2 hours, β-lactone 10 μg/ml
  Fungal Growth: 6.50 × 10^3 CFU/ML
Candida albicans; Table 2, 4.5 hours, β-lactone 10 μg/ml
  Fungal Growth: 7.50 × 10^3 CFU/ML
Candida albicans; Table 2, 7 hours, β-lactone 10 μg/ml
  Fungal Growth: 3.35 × 10^3 CFU/ML
Candida albicans; Table 2, 11 hours, β-lactone 10 μg/ml
  Fungal Growth: 8.70 × 10^2 CFU/ML
Candida albicans; Table 2, 17 hours, β-lactone 10 μg/ml
  Fungal Growth: 5.00 × 10^1 CFU/ML
Candida albicans; Table 2, 22 hours, β-lactone 10 μg/ml
  Fungal Growth: 6.50 × 10^1 CFU/ML
Candida albicans; Table 2, 27 hours, β-lactone 10 μg/ml
  Fungal Growth: 7.50 × 10^1 CFU/ML
Candida albicans MY 1055 [3]
  MIC: 2.5 µg/mL (≈ 7.71 µM)
C. albicans (Y1750); ketoconazole 0 μg/ml
  MIC, β-Lactone Compound in Presence of Ketoconazole: 3.125 µg/mL
C. albicans (Y1750); ketoconazole 0.031 μg/ml
  MIC, β-Lactone Compound in Presence of Ketoconazole: 0.78 µg/mL
C. albicans (Y1750); ketoconazole 0.123 μg/ml
  MIC, β-Lactone Compound in Presence of Ketoconazole: 0.195 µg/mL
C. albicans (Y1750); ketoconazole 0.5 μg/ml
  MIC, β-Lactone Compound in Presence of Ketoconazole: 0.19 µg/mL
C. albicans (Y1750); ketoconazole 2 μg/ml
  MIC, β-Lactone Compound in Presence of Ketoconazole: 0.19 µg/mL
C. miyabeamis; ketoconazole 0 μg/ml
  MIC, β-Lactone Compound in Presence of Ketoconazole: 0.78 µg/mL
C. miyabeamis; ketoconazole 0.031 μg/ml
  MIC, β-Lactone Compound in Presence of Ketoconazole: 0.39 µg/mL
C. miyabeamis; ketoconazole 0.123 μg/ml
  MIC, β-Lactone Compound in Presence of Ketoconazole: 0.78 µg/mL
C. miyabeamis; ketoconazole 2 μg/ml
  MIC, β-Lactone Compound in Presence of Ketoconazole: N.G.
